Key:
[1] = Inhibition of human P-gp expressed in mouse T-cell lymphoma assessed as potentiation of daunorubicin-induced cellular toxicity by measuring daunorubicin IC50 at 5 uM by MTT assay (Rvb = 8.26 +/- 0.62 uM)
[2] = Inhibition of human P-gp expressed in mouse T-cell lymphoma assessed as potentiation of daunorubicin-induced cellular toxicity by measuring daunorubicin IC50 at 10 uM by MTT assay (Rvb = 8.26 +/- 0.62 uM)

Compound	IC50 [1] [nM]	IC50 [2] [nM]
CCOC(=O)C1=CN(Cc2ccccc2)c2ccccc2C1c1ccc(OC)c(OC)c1 (stereo not drawn)	4760	390
CCOC(=O)C1=CN(Cc2ccccc2)c2ccccc2C1c1cccc(OC)c1 (stereo not drawn)	–	860

Source: BindingDB's records for doi:10.1016/j.bmcl.2015.05.018 (Martin-Luther-University Halle-Wittenberg, 2015)
